Test results: patent US8044069B2, “Compounds as calcium channel blockers” (Abbott Laboratories, priority 2008, dated 2011)

Each compound was assayed against human Cav2.2 (Homo sapiens, UniProt Q00975) (assay: Assessment of calcium channel activity using FLIPR (Ca2+ influx in IMR32 cells)). Conditions: IMR32 cells endogenously expressing human Cav2.2; 60 minute pre-incubation; 2 μM nifedipine; depolarized with 80 mM KCl, 5 mM CaCl2.
Chain of human Cav2.2 (Q00975 whole entry): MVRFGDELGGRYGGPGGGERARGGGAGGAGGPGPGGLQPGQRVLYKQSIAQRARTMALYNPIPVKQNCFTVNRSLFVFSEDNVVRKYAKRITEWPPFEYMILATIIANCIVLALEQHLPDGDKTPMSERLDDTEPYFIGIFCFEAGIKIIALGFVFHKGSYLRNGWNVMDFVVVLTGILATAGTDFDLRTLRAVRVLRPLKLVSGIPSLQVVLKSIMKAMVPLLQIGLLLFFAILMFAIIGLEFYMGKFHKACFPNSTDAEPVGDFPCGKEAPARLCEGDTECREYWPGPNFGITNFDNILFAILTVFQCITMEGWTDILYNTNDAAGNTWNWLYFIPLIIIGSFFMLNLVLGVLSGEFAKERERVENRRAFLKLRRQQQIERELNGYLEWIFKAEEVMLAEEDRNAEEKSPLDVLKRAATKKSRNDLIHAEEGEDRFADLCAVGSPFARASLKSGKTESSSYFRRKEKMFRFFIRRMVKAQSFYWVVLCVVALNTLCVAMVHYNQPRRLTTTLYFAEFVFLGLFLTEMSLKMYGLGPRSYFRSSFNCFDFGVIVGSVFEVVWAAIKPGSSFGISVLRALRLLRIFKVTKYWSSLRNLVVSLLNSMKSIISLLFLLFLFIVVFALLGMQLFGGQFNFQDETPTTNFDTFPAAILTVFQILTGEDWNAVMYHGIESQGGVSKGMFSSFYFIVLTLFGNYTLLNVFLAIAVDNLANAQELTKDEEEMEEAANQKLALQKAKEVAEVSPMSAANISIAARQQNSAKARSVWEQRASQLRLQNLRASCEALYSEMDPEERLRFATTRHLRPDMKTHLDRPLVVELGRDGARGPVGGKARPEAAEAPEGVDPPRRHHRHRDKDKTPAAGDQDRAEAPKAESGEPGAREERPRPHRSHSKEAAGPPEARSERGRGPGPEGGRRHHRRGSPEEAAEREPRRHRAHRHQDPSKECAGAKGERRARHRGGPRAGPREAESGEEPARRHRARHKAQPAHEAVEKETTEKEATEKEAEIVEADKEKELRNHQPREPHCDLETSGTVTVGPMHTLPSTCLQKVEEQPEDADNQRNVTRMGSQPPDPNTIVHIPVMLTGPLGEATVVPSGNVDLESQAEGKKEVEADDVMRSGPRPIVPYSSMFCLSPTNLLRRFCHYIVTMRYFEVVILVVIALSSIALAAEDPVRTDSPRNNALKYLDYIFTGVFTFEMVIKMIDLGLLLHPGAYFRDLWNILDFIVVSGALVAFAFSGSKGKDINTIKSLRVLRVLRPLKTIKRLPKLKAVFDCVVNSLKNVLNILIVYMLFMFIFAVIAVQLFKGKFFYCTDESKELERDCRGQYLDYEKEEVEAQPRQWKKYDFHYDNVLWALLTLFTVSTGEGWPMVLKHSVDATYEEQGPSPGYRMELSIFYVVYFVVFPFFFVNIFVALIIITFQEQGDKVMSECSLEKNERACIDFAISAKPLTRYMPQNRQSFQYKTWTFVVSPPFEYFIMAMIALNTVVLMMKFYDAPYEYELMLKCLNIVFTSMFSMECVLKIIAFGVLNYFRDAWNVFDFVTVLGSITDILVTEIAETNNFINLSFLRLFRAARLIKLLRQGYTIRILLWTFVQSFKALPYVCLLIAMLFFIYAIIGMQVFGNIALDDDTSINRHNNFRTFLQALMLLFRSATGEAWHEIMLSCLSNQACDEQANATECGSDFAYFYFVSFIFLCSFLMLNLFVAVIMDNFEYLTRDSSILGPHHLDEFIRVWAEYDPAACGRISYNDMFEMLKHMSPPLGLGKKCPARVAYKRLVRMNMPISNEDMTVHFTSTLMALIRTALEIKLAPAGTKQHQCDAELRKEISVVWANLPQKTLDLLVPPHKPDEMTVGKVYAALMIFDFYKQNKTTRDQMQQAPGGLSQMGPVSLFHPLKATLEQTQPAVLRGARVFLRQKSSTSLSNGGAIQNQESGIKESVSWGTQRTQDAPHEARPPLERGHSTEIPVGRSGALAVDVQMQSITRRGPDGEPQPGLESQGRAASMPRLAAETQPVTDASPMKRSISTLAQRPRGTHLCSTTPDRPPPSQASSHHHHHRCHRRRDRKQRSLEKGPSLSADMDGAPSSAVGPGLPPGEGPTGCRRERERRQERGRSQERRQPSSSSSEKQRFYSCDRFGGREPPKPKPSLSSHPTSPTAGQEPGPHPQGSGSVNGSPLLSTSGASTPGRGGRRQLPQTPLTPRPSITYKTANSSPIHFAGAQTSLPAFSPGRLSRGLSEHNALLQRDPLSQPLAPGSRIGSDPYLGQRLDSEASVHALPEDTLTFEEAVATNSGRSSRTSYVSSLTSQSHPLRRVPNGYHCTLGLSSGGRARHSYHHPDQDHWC
Chain of human Cav2.2 (P54289 25-951 partner limits assumed): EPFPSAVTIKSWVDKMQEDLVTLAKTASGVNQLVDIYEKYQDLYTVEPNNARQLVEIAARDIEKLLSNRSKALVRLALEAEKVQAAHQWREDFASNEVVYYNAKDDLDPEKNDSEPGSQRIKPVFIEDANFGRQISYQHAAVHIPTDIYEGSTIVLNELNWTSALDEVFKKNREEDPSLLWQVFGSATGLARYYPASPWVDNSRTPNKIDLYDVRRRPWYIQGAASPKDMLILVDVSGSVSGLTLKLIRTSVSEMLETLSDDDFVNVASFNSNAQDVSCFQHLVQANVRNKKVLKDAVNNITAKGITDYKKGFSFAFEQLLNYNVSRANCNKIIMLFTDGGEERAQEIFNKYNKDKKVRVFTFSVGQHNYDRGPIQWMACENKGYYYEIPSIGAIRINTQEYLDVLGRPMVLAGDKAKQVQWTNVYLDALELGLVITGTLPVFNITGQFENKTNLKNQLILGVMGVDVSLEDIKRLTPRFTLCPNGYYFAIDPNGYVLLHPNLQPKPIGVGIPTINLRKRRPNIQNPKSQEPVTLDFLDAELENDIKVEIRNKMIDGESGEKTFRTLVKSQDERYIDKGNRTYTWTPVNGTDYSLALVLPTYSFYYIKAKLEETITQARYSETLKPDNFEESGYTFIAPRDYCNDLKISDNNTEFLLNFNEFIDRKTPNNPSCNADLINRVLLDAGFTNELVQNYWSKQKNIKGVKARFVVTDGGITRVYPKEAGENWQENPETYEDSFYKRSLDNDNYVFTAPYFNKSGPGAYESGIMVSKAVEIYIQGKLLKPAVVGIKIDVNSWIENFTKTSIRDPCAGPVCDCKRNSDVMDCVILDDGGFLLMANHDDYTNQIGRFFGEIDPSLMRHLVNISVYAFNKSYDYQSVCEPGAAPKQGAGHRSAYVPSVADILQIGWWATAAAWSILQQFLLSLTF
Chain of human Cav2.2 (P54289 952-1103 partner limits assumed): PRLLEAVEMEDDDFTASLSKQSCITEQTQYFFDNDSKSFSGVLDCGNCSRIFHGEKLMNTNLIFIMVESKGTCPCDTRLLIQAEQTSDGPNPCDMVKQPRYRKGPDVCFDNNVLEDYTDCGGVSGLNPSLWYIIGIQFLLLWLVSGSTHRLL
Chain of human Cav2.2 (P54284 whole entry partner): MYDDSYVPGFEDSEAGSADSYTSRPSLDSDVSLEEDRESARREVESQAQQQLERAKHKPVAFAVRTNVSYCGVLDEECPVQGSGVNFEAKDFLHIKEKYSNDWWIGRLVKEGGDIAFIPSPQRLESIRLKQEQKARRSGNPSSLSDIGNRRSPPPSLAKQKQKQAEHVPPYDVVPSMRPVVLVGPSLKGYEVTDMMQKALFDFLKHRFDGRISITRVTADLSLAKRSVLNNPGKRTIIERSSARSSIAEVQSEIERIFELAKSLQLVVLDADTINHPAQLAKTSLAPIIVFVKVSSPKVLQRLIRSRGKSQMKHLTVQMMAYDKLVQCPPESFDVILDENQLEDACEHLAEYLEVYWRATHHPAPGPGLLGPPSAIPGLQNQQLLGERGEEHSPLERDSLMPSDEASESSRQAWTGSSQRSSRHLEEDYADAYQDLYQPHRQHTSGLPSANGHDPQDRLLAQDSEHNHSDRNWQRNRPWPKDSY
Format: cell-based
Outline: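 FLIPR measured Ca2+ influx triggered by 80 mM KCl depolarization together with a step to 5 mM external CaCl2. Percent inhibition relative to uninhibited activity was fitted sigmoidally for IC50.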
With `O=C1N(S(=O)(=O)c2cccc(C(F)(F)F)c2)CCCC1(c1ccccc1)c1ccccc1` [Example 146, 3,3-diphenyl-1-{[3-(trifluoromethyl)phenyl]sulfonyl}piperidin-2-one] the IC50 was 6.78 µM.
Compound `C[C@@H]1CN(C(=O)c2cccc(S(=O)(=O)N3CCC(c4ccccc4)(c4ccccc4)C3=O)c2)C[C@H](C)O1` [Example 147, 1-[(3-{[cis-2,6-dimethylmorpholin-4-yl]carbonyl}phenyl)sulfonyl]-3,3-diphenylpyrrolidin-2-one] has an IC50 of 1.84 µM.
`O=C1N(S(=O)(=O)c2ccccc2C(F)(F)F)CCC1(c1ccccc1)c1ccccc1` [Example 148, 3,3-diphenyl-1-{[2-(trifluoromethyl)phenyl]sulfonyl}pyrrolidin-2-one] gave an IC50 of 6.88 µM.
Work on `O=C1N(S(=O)(=O)c2ccc(C(F)(F)F)cc2)CCC1(c1ccccc1)c1ccccc1` [Example 149, 3,3-diphenyl-1-{[4-(trifluoromethyl)phenyl]sulfonyl}pyrrolidin-2-one] yielded an IC50 of 8.13 µM.
With `O=C(NC1CC1)c1cccc(S(=O)(=O)N2CCC(c3ccccc3)(c3ccccc3)C2=O)c1` [Example 150, N-cyclopropyl-3-[(2-oxo-3,3-diphenylpyrrolidin-1-yl)sulfonyl]benzamide] the IC50 was 0.86 µM.
For `O=C1N(S(=O)(=O)c2ccc(C(F)(F)F)cc2Cl)CCC1(c1ccccc1)c1ccccc1` [Example 151, 1-{[2-chloro-4-(trifluoromethyl)phenyl]sulfonyl}-3,3-diphenylpyrrolidin-2-one], the IC50 was 18.3 µM.
In the case of `O=C(CN1CCC(c2ccc(F)cc2)(c2ccc(F)cc2)C1=O)N1CC2(CCN(Cc3ccccc3)CC2)C1` [Example 152, 1-[2-(7-benzyl-2,7-diazaspiro[3.5]non-2-yl)-2-oxoethyl]-3,3-bis(4-fluorophenyl)pyrrolidin-2-one], the IC50 is reported as 0.73 µM.
Compound `O=C(CN1CCC(c2ccc(F)cc2)(c2ccc(F)cc2)C1=O)N1CC2(CCN(Cc3ccc(C(F)(F)F)cc3)CC2)C1` [Example 153, 3,3-bis(4-fluorophenyl)-1-(2-oxo-2-{7-[4-(trifluoromethyl)benzyl]-2,7-diazaspiro[3.5]non-2-yl}ethyl)pyrrolidin-2-one] has an IC50 of 0.86 µM.
`O=C1N(Cc2nc(-c3ccc4[nH]ncc4c3)no2)CCCC1(c1ccccc1)c1ccccc1` [Example 154, 1-{[3-(1H-indazol-5-yl)-1,2,4-oxadiazol-5-yl]methyl}-3,3-diphenylpiperidin-2-one] gave an IC50 of 5.15 µM.
With `O=C1N(CCCc2nc(-c3ccc(C(F)(F)F)cc3)no2)CCC1(c1ccccc1)c1ccccc1` [Example 155, 3,3-diphenyl-1-(3-{3-[4-(trifluoromethyl)phenyl]-1,2,4-oxadiazol-5-yl}propyl)pyrrolidin-2-one] the IC50 was 4.37 µM.
With `Cc1nc(-c2ccc(C(F)(F)F)cc2)sc1CN1CCC(c2ccccc2)(c2ccccc2)C1=O` [Example 156, 1-({4-methyl-2-[4-(trifluoromethyl)phenyl]-1,3-thiazol-5-yl}methyl)-3,3-diphenylpyrrolidin-2-one] the IC50 was 6.18 µM.
In the case of `Cc1nc(-c2cccc(C(F)(F)F)c2)sc1CN1CCC(c2ccccc2)(c2ccccc2)C1=O` [Example 157, 1-({4-methyl-2-[3-(trifluoromethyl)phenyl]-1,3-thiazol-5-yl}methyl)-3,3-diphenylpyrrolidin-2-one], the IC50 is reported as 5.21 µM.
Work on `O=C(CN1CCCC(c2ccccc2)(c2ccccc2)C1=O)N1CCC(Oc2ccc(Cl)cc2)CC1` [Example 158, 1-{2-[4-(4-chlorophenoxy)piperidin-1-yl]-2-oxoethyl}-3,3-diphenylpiperidin-2-one] yielded an IC50 of 4.07 µM.
With `O=C(CN1CCCC(c2ccccc2)(c2ccccc2)C1=O)N1CCC(Oc2cccc(Cl)c2)CC1` [Example 159, 1-{2-[4-(3-chlorophenoxy)piperidin-1-yl]-2-oxoethyl}-3,3-diphenylpiperidin-2-one] the IC50 was 3.73 µM.
`O=C(CN1CCCC(c2ccccc2)(c2ccccc2)C1=O)N1CCC(Oc2ccc(F)c(F)c2)CC1` [Example 160, 1-{2-[4-(3,4-difluorophenoxy)piperidin-1-yl]-2-oxoethyl}-3,3-diphenylpiperidin-2-one] gave an IC50 of 3.04 µM.
`COc1ccc(OC2CCN(C(=O)CN3CCCC(c4ccccc4)(c4ccccc4)C3=O)CC2)cc1` [Example 161, 1-{2-[4-(4-methoxyphenoxy)piperidin-1-yl]-2-oxoethyl}-3,3-diphenylpiperidin-2-one] gave an IC50 of 5.74 µM.
`O=C(CN1CCCC(c2ccccc2)(c2ccccc2)C1=O)N1CCC(Oc2cccc(C(F)(F)F)c2)CC1` [Example 162, 1-(2-oxo-2-{4-[3-(trifluoromethyl)phenoxy]piperidin-1-yl}ethyl)-3,3-diphenylpiperidin-2-one] showed an IC50 of 1.86 µM.
With `O=C(CN1CCCC(c2ccccc2)(c2ccccc2)C1=O)N1CCC(=NOCc2ccccc2)CC1` [Example 163, 1-(2-{4-[(benzyloxy)imino]piperidin-1-yl}-2-oxoethyl)-3,3-diphenylpiperidin-2-one] the IC50 was 3.79 µM.
Work on `O=C(CN1CCCC(c2ccccc2)(c2ccccc2)C1=O)N1CCC(n2nnc3cc(C(F)(F)F)ccc32)CC1` [Example 164, 1-(2-oxo-2-{4-[5-(trifluoromethyl)-1H-1,2,3-benzotriazol-1-yl]piperidin-1-yl}ethyl)-3,3-diphenylpiperidin-2-one] yielded an IC50 of 2.02 µM.
`O=C1N(Cc2nc(CCc3ccc(Cl)cc3)no2)CCC1(c1ccc(F)cc1)c1ccc(F)cc1` [Example 165, 1-({3-[2-(4-chlorophenyl)ethyl]-1,2,4-oxadiazol-5-yl}methyl)-3,3-bis(4-fluorophenyl)pyrrolidin-2-one] was tested, and the IC50 was 3.39 µM.
`COc1ccc(CC2(C)CN(C(=O)CN3CCC(c4ccccc4)(c4ccccc4)C3=O)CCN2)cc1OC` (stereo not drawn) [Example 167, 1-{2-[3-(3,4-dimethoxybenzyl)-3-methylpiperazin-1-yl]-2-oxoethyl}-3,3-diphenylpyrrolidin-2-one] was tested, and the IC50 was 2.02 µM.
`O=C(CN1CCC(c2ccccc2)(c2ccccc2)C1=O)NCc1ncco1` [Example 168, N-(1,3-oxazol-2-ylmethyl)-2-(2-oxo-3,3-diphenylpyrrolidin-1-yl)acetamide] was tested, and the IC50 was > 30 µM.
With `O=C(CN1CCCC(c2ccccc2)(c2ccccc2)C1=O)N1CCN(Cc2ccc(Cl)cc2Cl)CC1` [Example 169, 1-{2-[4-(2,4-dichlorobenzyl)piperazin-1-yl]-2-oxoethyl}-3,3-diphenylpiperidin-2-one] the IC50 was 1.8 µM.
Compound `O=C1N(Cc2nc(-c3ccc(Cl)cc3)no2)CCCC1(c1ccccc1)c1ccccc1` [Example 170, 1-{[3-(4-chlorophenyl)-1,2,4-oxadiazol-5-yl]methyl}-3,3-diphenylpiperidin-2-one] has an IC50 of 6.7 µM.
For `O=C(CN1CCCC(c2ccccc2)(c2ccccc2)C1=O)N1CCC(=C(c2ccc(F)cc2)c2ccc(F)cc2)CC1` [Example 171, 1-(2-{4-[bis(4-fluorophenyl)methylene]piperidin-1-yl}-2-oxoethyl)-3,3-diphenylpiperidin-2-one], the IC50 was 2.45 µM.
Work on `O=C(CN1CCCC(c2ccc(F)cc2)(c2ccc(F)cc2)C1=O)N1CCC(c2ccccc2)(c2ccccc2)C1` [Example 172, 1-[2-(3,3-diphenylpyrrolidin-1-yl)-2-oxoethyl]-3,3-bis(4-fluorophenyl)piperidin-2-one] yielded an IC50 of 1.77 µM.
For `O=C(CN1CCCC(c2ccc(F)cc2)(c2ccc(F)cc2)C1=O)N1CCC(c2ccccc2)(c2ccccc2)CC1` [Example 173, 1-[2-(4,4-diphenylpiperidin-1-yl)-2-oxoethyl]-3,3-bis(4-fluorophenyl)piperidin-2-one], the IC50 was 3.88 µM.
With `O=C(CN1CCCC(c2ccccc2)(c2ccccc2)C1=O)N1CCC(c2ccccc2)(c2ccccc2)C1` [Example 174, 1-[2-(3,3-diphenylpyrrolidin-1-yl)-2-oxoethyl]-3,3-diphenylpiperidin-2-one] the IC50 was 2.43 µM.
Work on `O=C(CN1CCCC(c2ccc(F)cc2)(c2ccc(F)cc2)C1=O)N1CCN(Cc2cccc(C(F)(F)F)c2)CC1` [Example 175, 3,3-bis(4-fluorophenyl)-1-(2-oxo-2-{4-[3-(trifluoromethyl)benzyl]piperazin-1-yl}ethyl)piperidin-2-one] yielded an IC50 of 1.25 µM.
`O=C(CN1CCCC(c2ccccc2)(c2ccccc2)C1=O)NC1CN(C(c2ccccc2)c2ccccc2)C1` [Example 176, N-(1-benzhydrylazetidin-3-yl)-2-(2-oxo-3,3-diphenylpiperidin-1-yl)acetamide] gave an IC50 of 1.03 µM.
`O=C1N(Cc2nc(-c3ccc(C(F)(F)F)nc3)no2)CCCC1(c1ccccc1)c1ccccc1` [Example 177, 3,3-diphenyl-1-({3-[6-(trifluoromethyl)pyridin-3-yl]-1,2,4-oxadiazol-5-yl}methyl)piperidin-2-one] showed an IC50 of 3.37 µM.
Work on `O=C(CN1CCCC(c2ccccc2)C1=O)N1Cc2ccc(C(F)(F)F)cc2C1` (stereo not drawn) [Example 178, 1-{2-oxo-2-[5-(trifluoromethyl)-1,3-dihydro-2H-isoindol-2-yl]ethyl}-3-phenylpiperidin-2-one] yielded an IC50 of 7.73 µM.
Work on `O=C1N(Cc2nc(-c3cccc(C(F)(F)F)c3)no2)CCCC1(c1ccccc1)c1ccccc1` [Example 179, 3,3-diphenyl-1-({3-[3-(trifluoromethyl)phenyl]-1,2,4-oxadiazol-5-yl}methyl)piperidin-2-one] yielded an IC50 of 9.41 µM.
Work on `O=C(CN1CCCC(c2ccccc2)(c2ccccc2)C1=O)NC1CN(Cc2cccc(C(F)(F)F)c2)C1` [Example 180, 2-(2-oxo-3,3-diphenylpiperidin-1-yl)-N-{1-[3-(trifluoromethyl)benzyl]azetidin-3-yl}acetamide] yielded an IC50 of 0.94 µM.
`O=C1C(c2ccccc2)CCCN1Cc1nc(-c2ccc(C(F)(F)F)cc2)no1` (stereo not drawn) [Example 181, 3-phenyl-1-({3-[4-(trifluoromethyl)phenyl]-1,2,4-oxadiazol-5-yl}methyl)piperidin-2-one] gave an IC50 of 3.27 µM.
For `O=C(CN1CCCC(c2ccccc2)(c2ccccc2)C1=O)N1CCN(C(=O)OCc2ccccc2)CC1` [Example 182, benzyl 4-[(2-oxo-3,3-diphenylpiperidin-1-yl)acetyl]piperazine-1-carboxylate], the IC50 was 1.37 µM.
